{"source": "patent US20070031889A1", "about": "“Method for rapidly detecting quinolone-resistant Salmonella ssp. and the probes and primers utilized therein” (Bureau of Food and Drug Analysis, Department of Health, …, priority 2004, published 2007)", "key": {"Salmonella strains": {"tested_on": "Salmonella strains", "assay": "Minimum inhibitory concentration (MIC) of quinolone antibacterials by E-test strips", "assay_type": "cell-based, Salmonella spp.", "details": "for MIC: Salmonella", "experimental": "The minimum inhibitory concentration was deterrnined by the E-test strips of quinolone antibacterials (AB BIODISC North America Inc., Solna, Sweden). The bacterial strain to be tested was streak plated on xylose lysin desoxycholate agar (XLD) (Merck kGaA, Darmstadt, Germany). After the purity of said strain was verified, the strain was grown on tryptic soy agar (TSA) medium (Merck kGaA, Darrnstadt, Germany) at 35-37° C. for 16-18 hours and then suspended in sterile water. The bacterial concentration was adjusted to 80% of turbidity (corresponding to 0.5 MacFarland turbidity standard, and the bacterial content is approximately […]) using Vitek Special DR 100 Colorimeter (HACH Company, Colorado, USA). Then, 0.1 ml of the bacterial aliquot was placed on the prepared Mueller-Hinton (M-H) agar medium (having the diameter of 9 cm and the thickness of 4.0±0.5 mm) (Merck kGaA, Darmstadt, Germany) and the aliquot was spread evenly on the medium by a sterilized glass rod. The medium plate stood still for 10 to 15 minutes to ensure that the bacterial aliquot completely penetrated into the medium. Thereafter, a sterilized tweezer was used to clip the E region of the E-test antibacterial test strip which was then placed on the inoculated M-H medium plate. Two E-test trips were placed parallel to each other and symmetrically on each medium plate. Said medium plates were then incubated at 35-37° C. for 16-18 hours. The results were determined based on the standards from National Committee for Clinical Laboratory Standard (NCCLS, 2001), USA. Each antibacterial agent was tested in a duplicate experiment, and E. coli ATCC 25922/CCRC 11509 was used as the control of the tested strains in each experiment."}, "[1]": {"tested_on": "single-stranded PCR products of Salmonella gyrA gene", "assay": "Real-time PCR with melting curve analysis of gyrA4 hybridization probes", "assay_type": "binding, Salmonella spp.", "experimental": "(§1) The bacterial strain to be tested was streak plated on XLD medium. After the purity of said strain was verified, the strain was grown in TSB broth at 35±1° C. for 18±2 hours. Following refrigerated centrifugation, Wizard® Genomic DNA Purification Kit was used to extract the genomic DNA. One microliter of the DNA extraction solution was added to the reaction mix (containing 0.5 μM primer set, 0.2 μM probe set, 4 mM MgCl2, and 1×LightCycler DNA Master hybridization mix) to a final volume of 20 μl, which was then placed in LightCycler (Roche Applied Science, Mannheim, Germany) for amplification and melting reaction of the hybrid of the PCR product with the hybridization probes."}, "[2]": {"tested_on": "single-stranded PCR products of parC gene", "assay": "Real-time PCR with melting curve analysis of parC238 hybridization probes", "assay_type": "binding, Salmonella spp.", "experimental": "as §1"}, "[3]": {"details": "Table 4, gyrA single point mutation strains (52)"}}, "note": "Several values for one entry are separate records, joined by “and”; a condition that tells them apart may be missing. Equal values may be shown once. Read-outs that look alike come from different tables or passages of the source. {LC640} = LightCycler Red 640 dye label (LCRED640); {FL} = fluorescein label (FL); {P} = phosphate"}
{"compound": "O=C(O)c1cn(C2CC2)c2cc(N3CCNCC3)c(F)cc2c1=O", "note": "[ciprofloxacin]", "values": [{"measurement": "Susceptibility Cp", "setting": "Salmonella strains; Mutant strains (75)", "value": "S/R"}, {"measurement": "Susceptibility", "setting": "Salmonella strains; Table 4, Wild type strains", "value": "S"}, {"measurement": "Susceptibility", "setting": "Salmonella strains; [3]", "value": "S"}, {"measurement": "Susceptibility Cp", "setting": "Salmonella strains; Wild type strains (45)", "value": "S (S, susceptibility, MICs 0.006-0.38 μg/ml)"}, {"measurement": "Ciprofloxacin susceptibility", "setting": "Salmonella strains; parC mutant (A238C) strains (23)", "value": "Resistant"}, {"measurement": "Ciprofloxacin susceptibility", "setting": "Salmonella strains; parC wild type strains (97)", "value": "Sensitive"}, {"measurement": "Susceptibility", "setting": "Salmonella strains; {}", "value": "S"}]}
{"compound": "CCn1cc(C(=O)O)c(=O)c2ccc(C)nc21", "note": "[nalidixic acid]", "values": [{"measurement": "share of the 120 Salmonella strains tested that were resistant", "setting": "Salmonella strains; 120 strains from animal foods and clinical samples", "value": 62.5, "unit": "%"}, {"measurement": "MIC", "setting": "Salmonella strains; read-out: MICs, resistant strains (gyrA mutants)", "value": "≥ 256", "unit": "µg/mL"}, {"measurement": "MIC", "setting": "Salmonella strains; susceptible strains (wild type), read-out: MICs", "value": "2.5 to 7", "unit": "µg/mL"}, {"measurement": "Susceptibility", "setting": "Salmonella strains; Table 4, Wild type strains", "value": "S"}, {"measurement": "Susceptibility", "setting": "Salmonella strains; [3]", "value": "R"}, {"measurement": "Susceptibility NA", "setting": "Salmonella strains; Wild type strains (45)", "value": "S (S, susceptibility, MICs 2.5˜7 μg/ml)"}, {"measurement": "Susceptibility", "setting": "Salmonella strains; {}", "value": "R"}, {"measurement": "Susceptibility NA", "setting": "Salmonella strains; {}", "value": "R (R, resistance, MICs ≧ 256 μg/ml)"}]}
{"compound": "gyrA4: hybridization probe set of gyrA4-FL (SEQ ID NO: 5) and gyrA4-LC640 (SEQ ID NO: 6) (DNA 1 CGATTCCGCAGTGTATGACACC; DNA 2 CGTTCGTATGGCGCAGCCATTCTCG; DNA 1: DNA, 3' {FL}, backbone not given here; DNA 2: DNA, 5' {LC640}, 3' {P}, backbone not given here; listed as Salmonella sp.)", "values": [{"measurement": "Tm ± SD (CV %)", "setting": "[1]; C248A mutant strains", "value": "58.6±0.3 °C and 58.6 ± 0.3 (0.51) ° C."}, {"measurement": "Tm ± SD (CV %)", "setting": "[1]; C248T mutant strains", "value": "59.1±0.2 °C and 59.1 ± 0.2 (0.40) ° C."}, {"measurement": "Tm ± SD (CV %)", "setting": "[1]; G259A mutant strains", "value": "59.8±0.4 °C and 59.8 ± 0.4 (0.60) ° C."}, {"measurement": "Tm ± SD (CV %)", "setting": "[1]; G259T mutant strains", "value": "59.6±0.4 °C and 59.6 ± 0.4 (0.68) ° C."}, {"measurement": "Tm ± SD (CV %)", "setting": "[1]; Wild type strains", "value": "63.6±1.0 °C and 63.6 ± 1.0 (1.62) ° C."}, {"measurement": "Tm ± SD (CV %)", "setting": "[1]; double point mutation C248T/A260G strains", "value": "54.6±0.2 °C and 54.6 ± 0.2 (0.27) ° C."}, {"measurement": "Tm ± SD (CV %)", "setting": "[1]; single point mutation strains (C248A, C248T, G259A, G259T)", "value": "59.2±0.5 °C and 59.2 ± 0.5 (0.89) ° C."}]}
{"compound": "parC238: hybridization probe set of parC238-FL (SEQ ID NO: 7) and parC238-LC640 (SEQ ID NO: 8) (DNA 1 CGACCGCGCCTGCT; DNA 2 GAAGCCATGGTGCTGATGGCG; DNA 1: DNA, 3' {FL}, backbone not given here; DNA 2: DNA, 5' {LC640}, 3' {P}, backbone not given here; listed as Salmonella sp.)", "values": [{"measurement": "Tm ± SD (CV %)", "setting": "[2]; parC mutant (A238C) strains", "value": "61.4±0.3", "unit": "°C"}, {"measurement": "Tm ± SD (CV %)", "setting": "[2]; parC wild type strains", "value": "47.4±0.5", "unit": "°C"}]}
